Experimental data as given in patent US8735375B2, “Therapeutic compositions” (Leo Laboratories Limited, priority 2005, dated 2014).

Test: Stability of I3A isoforms in the assay solvent systems over 72 h
Assay type: physicochemical
Experimental: The stability of […] isoforms 'a', 'b' and 'c' in the three sample systems over 72 h (equivalent to the maximum possible length of time the samples might be held in the autosampler during a long HPLC analytical run) was confirmed as follows. Standards of the three isoforms of […] The standards were then each divided into three equal volumes and placed at 2-8° C., room temperature and 40° C. for 72 h and were then again analysed by HPLC.

[1] = Acetonitrile/Citrate buffer (pH 3), 72 h 2-8° C.
[2] = Acetonitrile/Citrate buffer (pH 3), 72 h 40° C.
[3] = Acetonitrile/Citrate buffer (pH 3), 72 h RTP
[4] = Acetonitrile/Citrate buffer (pH 3), Time 0 h
[5] = Acetonitrile/Sodium acetate buffer (pH 4.5), 72 h 2-8° C.
[6] = Acetonitrile/Sodium acetate buffer (pH 4.5), 72 h 40° C.
[7] = Acetonitrile/Sodium acetate buffer (pH 4.5), 72 h RTP
[8] = Acetonitrile/Sodium acetate buffer (pH 4.5), Time 0 h

Structure (SMILES): CC=C(C)C(=O)OC1C(CO)=CC2C(=O)C3(C=C(C)C(O)C13O)C(C)CC1C2C1(C)C (stereo not drawn) [Isoform ‘a’, ingenol-5-angelate]
- % ‘a’ (Acetonitrile, 72 h 2-8° C.): 90.63%
- % ‘b’ (Acetonitrile, 72 h 2-8° C.): 5.71%
- % ‘c’ (Acetonitrile, 72 h 2-8° C.): 2.55%
- % ‘a’ (Acetonitrile, 72 h 40° C.): 16.36%
- % ‘b’ (Acetonitrile, 72 h 40° C.): 47.01%
- % ‘c’ (Acetonitrile, 72 h 40° C.): 35.74%
- % ‘a’ (Acetonitrile, 72 h RTP): 86.58%
- % ‘b’ (Acetonitrile, 72 h RTP): 7.8%
- % ‘c’ (Acetonitrile, 72 h RTP): 3.65%
- % ‘a’ (Acetonitrile, Time 0 h): 96.82%
- % ‘b’ (Acetonitrile, Time 0 h): 2.24%
- % ‘c’ (Acetonitrile, Time 0 h): 0.29%
- % ‘a’ [1]: 98.31%
- % ‘b’ [1]: 1.46%
- % ‘c’ [1]: 0%
- % ‘a’ [2]: 98.13%
- % ‘b’ [2]: 1.79%
- % ‘c’ [2]: 0%
- % ‘a’ [3]: 98.84%
- % ‘b’ [3]: 1.08%
- % ‘c’ [3]: 0%
- % ‘a’ [4]: 97.91%
- % ‘b’ [4]: 1.63%
- % ‘c’ [4]: 0%
- % ‘a’ [5]: 96.47%
- % ‘b’ [5]: 2.83%
- % ‘c’ [5]: 0%
- % ‘a’ [6]: 82.51%
- % ‘b’ [6]: 16.62%
- % ‘c’ [6]: 0%
- % ‘a’ [7]: 95.25%
- % ‘b’ [7]: 4.22%
- % ‘c’ [7]: 0%
- % ‘a’ [8]: 96.65%
- % ‘b’ [8]: 2.16%
- % ‘c’ [8]: 0.23%

Structure (SMILES): CC=C(C)C(=O)OCC1=CC2C(=O)C3(C=C(C)C(O)C3(O)C1O)C(C)CC1C2C1(C)C (stereo not drawn) [Isoform ‘c’, ingenol-20-angelate]
- % ‘a’ (Acetonitrile, 72 h 2-8° C.): 1.62%
- % ‘b’ (Acetonitrile, 72 h 2-8° C.): 0%
- % ‘c’ (Acetonitrile, 72 h 2-8° C.): 96.69%
- % ‘a’ (Acetonitrile, 72 h 40° C.): 0.6%
- % ‘b’ (Acetonitrile, 72 h 40° C.): 0%
- % ‘c’ (Acetonitrile, 72 h 40° C.): 97.09%
- % ‘a’ (Acetonitrile, 72 h RTP): 1.55%
- % ‘b’ (Acetonitrile, 72 h RTP): 0.27%
- % ‘c’ (Acetonitrile, 72 h RTP): 97.19%
- % ‘a’ (Acetonitrile, Time 0 h): 1.28%
- % ‘b’ (Acetonitrile, Time 0 h): 0.41%
- % ‘c’ (Acetonitrile, Time 0 h): 97.30%
- % ‘a’ [1]: 0.87%
- % ‘b’ [1]: 0.16%
- % ‘c’ [1]: 98.84%
- % ‘a’ [2]: 0%
- % ‘b’ [2]: 0%
- % ‘c’ [2]: 98.7%
- % ‘a’ [3]: 0.53%
- % ‘b’ [3]: 0%
- % ‘c’ [3]: 99.24%
- % ‘a’ [4]: 1.12%
- % ‘b’ [4]: 0.20%
- % ‘c’ [4]: 98.41%
- % ‘a’ [5]: 1.41%
- % ‘b’ [5]: 0.27%
- % ‘c’ [5]: 97.17%
- % ‘a’ [6]: 0%
- % ‘b’ [6]: 0%
- % ‘c’ [6]: 97.75%
- % ‘a’ [7]: 0.83%
- % ‘b’ [7]: 0%
- % ‘c’ [7]: 97.97%
- % ‘a’ [8]: 1.34%
- % ‘b’ [8]: 0.45%
- % ‘c’ [8]: 97.02%
